Numbered stars: 1 amine (or outer) side, 2 acyl side, 3 side chain; on linkers, the order of the positions; unused ones are H or OH. Bridge positions count the residues as written; N and C are the ends. Square brackets hold non-standard residues; d marks the D form. Peptide text beside a SMILES is read from it. 3Aminoazetidine3carboxyl = O=C(C1(N[*:1])CN([*:3])C1)[*:2]; dαMeOrn(Me) = CN(CCC[C@@](C)(N[*:1])C(=O)[*:2])[*:3]; dαMeDab(Me) = CN(CC[C@@](C)(N[*:1])C(=O)[*:2])[*:3]; dαMeDap(Me) = CN(C[C@@](C)(N[*:1])C(=O)[*:2])[*:3]; αMeDab(Me) = CN(CC[C@](C)(N[*:1])C(=O)[*:2])[*:3]; X3 = O=C([C@@]1(N[*:1])CCN([*:3])C1)[*:2]; X1 = O=C([C@]1(N[*:1])CCN([*:3])C1)[*:2]; X2 = O=C(OCC=CCOC(=O)[*:2])[*:1]
Biological target: T1, full-length beta-catenin (Axin site) (Homo sapiens, UniProt P35222)
T1 construct: 15 nM full-length beta-catenin, 20 nM FITC labeled peptide in buffer
T1 sequence (P35222 1-781): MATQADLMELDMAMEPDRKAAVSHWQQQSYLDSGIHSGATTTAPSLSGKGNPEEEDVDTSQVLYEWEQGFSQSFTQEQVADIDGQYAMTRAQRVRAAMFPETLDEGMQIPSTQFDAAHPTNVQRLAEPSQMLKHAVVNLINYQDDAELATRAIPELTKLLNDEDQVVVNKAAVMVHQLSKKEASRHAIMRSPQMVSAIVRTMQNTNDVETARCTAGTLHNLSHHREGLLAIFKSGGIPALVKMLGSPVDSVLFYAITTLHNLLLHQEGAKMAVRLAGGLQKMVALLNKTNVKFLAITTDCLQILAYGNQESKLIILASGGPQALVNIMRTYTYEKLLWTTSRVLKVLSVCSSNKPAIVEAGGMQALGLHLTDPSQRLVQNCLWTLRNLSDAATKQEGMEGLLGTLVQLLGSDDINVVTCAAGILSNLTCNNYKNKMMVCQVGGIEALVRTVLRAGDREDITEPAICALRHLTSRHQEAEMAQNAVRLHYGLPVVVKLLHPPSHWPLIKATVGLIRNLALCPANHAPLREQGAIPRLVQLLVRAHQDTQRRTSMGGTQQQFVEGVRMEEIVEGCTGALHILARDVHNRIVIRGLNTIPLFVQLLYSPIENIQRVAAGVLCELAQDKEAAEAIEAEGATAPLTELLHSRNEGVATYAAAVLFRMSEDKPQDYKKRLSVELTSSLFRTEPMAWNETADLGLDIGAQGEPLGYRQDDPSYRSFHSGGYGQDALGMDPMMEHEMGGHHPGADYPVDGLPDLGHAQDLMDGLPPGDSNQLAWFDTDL
Experiment: Competition fluorescence polarization assay (Axin site probe)
Assay type: binding
Conditions: competition fluorescence polarization, Table 2; read-out: in vitro FP EC50
Outline: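 Competition FP: 15 nM full-length β-catenin pre-incubated 5 min with 20 nM FITC-labelled stapled Axin-site peptide, then titrated peptide added (3-fold series from 5 μM) for 15 min in the dark. Buffer 50 mM Tris pH 8.0, 250 mM NaCl, 2% glycerol, 0.5 mM EDTA; duplicate reads.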

EC50 [nM] | Structure (SMILES)
> 5000 | CC[C@H](C)[C@@H]1NC(=O)[C@H](Cc2cccs2)NC(=O)[C@H](C)NC(=O)[C@H](CC(=O)O)NC(=O)[C@H](CC(C)C)NC(=O)[C@H]([C@@H](C)CC)NC(=O)[C@](C)(NC(=O)[C@H](C)NC(C)=O)CCCCCCC=CCOC(=O)N2CC[C@@](C(=O)N[C@@H](CCCNC(=N)N)C(=O)N[C@H](C(=O)N[C@@H](Cc3c[nH]c4ccccc34)C(N)=O)C(C)C)(C2)NC1=O [FP0536c, Ac-A-R8-I-L-D-A-thi-I-MB-R-V-W-NH2]
> 5000 | CC[C@H](C)[C@@H]1NC(=O)[C@H](Cc2cccnc2)NC(=O)[C@H](C)NC(=O)[C@H](CC(=O)O)NC(=O)[C@H](CC(C)C)NC(=O)[C@H]([C@@H](C)CC)NC(=O)[C@](C)(NC(=O)[C@H](C)NC(C)=O)CCCCCCC=CCOC(=O)N2CC[C@@](C(=O)N[C@@H](CCCNC(=N)N)C(=O)N[C@H](C(=O)N[C@@H](Cc3c[nH]c4ccccc34)C(N)=O)C(C)C)(C2)NC1=O [FP0537c, Ac-A-R8-I-L-D-A-3pyr-I-MB-R-V-W-NH2]
500 to 5000 | CC[C@H](C)[C@@H]1NC(=O)[C@H](Cc2ccncc2)NC(=O)[C@H](C)NC(=O)[C@H](CC(=O)O)NC(=O)[C@H](CC(C)C)NC(=O)[C@H]([C@@H](C)CC)NC(=O)[C@](C)(NC(=O)[C@H](C)NC(C)=O)CCCCCCC=CCOC(=O)N2CC[C@@](C(=O)N[C@@H](CCCNC(=N)N)C(=O)N[C@H](C(=O)N[C@@H](Cc3c[nH]c4ccccc34)C(N)=O)C(C)C)(C2)NC1=O [FP0538c, Ac-A-R8-I-L-D-A-4pyr-I-MB-R-V-W-NH2]
> 5000 | CC[C@H](C)[C@@H]1NC(=O)[C@H](Cc2ccccc2)NC(=O)[C@H](C)NC(=O)[C@H](CC(=O)O)NC(=O)[C@H](CC(C)C)NC(=O)[C@H]([C@@H](C)CC)NC(=O)[C@](C)(NC(=O)[C@H](C)NC(C)=O)CCCCCCC=CCOC(=O)N2CC[C@@](C(=O)N[C@@H](CCCNC(=N)N)C(=O)N[C@H](C(=O)N[C@@H](Cc3c[nH]c4ccccc34)C(N)=O)C(C)C)(C2)NC1=O [FP0540c, Ac-A-R8-I-L-D-A-F-I-MB-R-V-W-NH2]
> 5000 | CC[C@H](C)[C@@H]1NC(=O)[C@H](Cc2ccco2)NC(=O)[C@H](C)NC(=O)[C@H](CC(=O)O)NC(=O)[C@H](CC(C)C)NC(=O)[C@H]([C@@H](C)CC)NC(=O)[C@](C)(NC(=O)[C@H](C)NC(C)=O)CCCCCCC=CCOC(=O)N2CC[C@@](C(=O)N[C@@H](CCCNC(=N)N)C(=O)N[C@H](C(=O)N[C@@H](Cc3c[nH]c4ccccc34)C(N)=O)C(C)C)(C2)NC1=O [FP0541c, Ac-A-R8-I-L-D-A-fur-I-MB-R-V-W-NH2]
500 to 5000 | CC[C@H](C)[C@@H]1NC(=O)[C@H](Cc2c[nH]cn2)NC(=O)[C@H](C)NC(=O)[C@H](CC(=O)O)NC(=O)[C@H](CC(C)C)NC(=O)[C@H]([C@@H](C)CC)NC(=O)[C@](C)(NC(=O)[C@H](C)NC(C)=O)CCCCCCC=CCOC(=O)N2CC[C@@](C(=O)N[C@@H](CO)C(=O)N[C@H](C(=O)N[C@@H](Cc3c[nH]c4ccccc34)C(N)=O)C(C)C)(C2)NC1=O [FP0542c, Ac-A-R8-I-L-D-A-H-I-MB-S-V-W-NH2]
< 100 | CC[C@H](C)[C@@H]1NC(=O)[C@H](Cc2c[nH]cn2)NC(=O)[C@H](C)NC(=O)[C@H](CC(=O)O)NC(=O)[C@H](CC(C)C)NC(=O)[C@H]([C@@H](C)CC)NC(=O)[C@](C)(NC(=O)[C@H](C)NC(C)=O)CCCN(C)C(=O)OCC=CCOC(=O)N(C)CC[C@@](C)(C(=O)N[C@@H](CCCNC(=N)N)C(=O)N[C@H](C(=O)N[C@@H](Cc2c[nH]c3ccccc23)C(N)=O)C(C)C)NC1=O [FP0587c, Ac-A-MI-I-L-D-A-H-I-MF-R-V-W-NH2] (Ac-A[dαMeOrn(Me)]ILDAHI[αMeDab(Me)]RVW-NH2; linker 2-9 via X2)
500 to 5000 | CC[C@H](C)[C@@H]1NC(=O)[C@H](Cc2c[nH]cn2)NC(=O)[C@H](C)NC(=O)[C@H](CC(=O)O)NC(=O)[C@H](CC(C)C)NC(=O)[C@H]([C@@H](C)CC)NC(=O)[C@](C)(NC(=O)[C@H](C)NC(C)=O)CCN(C)C(=O)OCC=CCOC(=O)N(C)C[C@](C)(C(=O)N[C@@H](CCCNC(=N)N)C(=O)N[C@H](C(=O)N[C@@H](Cc2c[nH]c3ccccc23)C(N)=O)C(C)C)NC1=O [FP0596c, Ac-A-MG-I-L-D-A-H-I-ME-R-V-W-NH2] (Ac-A[dαMeDab(Me)]ILDAHI[dαMeDap(Me)]RVW-NH2; linker 2-9 via X2)
< 100 | CC[C@H](C)[C@@H]1NC(=O)[C@H](Cc2c[nH]cn2)NC(=O)[C@H](C)NC(=O)[C@H](CC(=O)O)NC(=O)[C@H](CC(C)C)NC(=O)[C@H]([C@@H](C)CC)NC(=O)[C@](C)(NC(=O)[C@H](C)NC(C)=O)CN(C)C(=O)OCC=CCOC(=O)N(C)CC[C@@](C)(C(=O)N[C@@H](CCCNC(=N)N)C(=O)N[C@H](C(=O)N[C@@H](Cc2c[nH]c3ccccc23)C(N)=O)C(C)C)NC1=O [FP0601c, Ac-A-ME-I-L-D-A-H-I-MF-R-V-W-NH2] (Ac-A[dαMeDap(Me)]ILDAHI[αMeDab(Me)]RVW-NH2; linker 2-9 via X2)
< 100 | CC[C@H](C)[C@@H]1NC(=O)[C@H](Cc2c[nH]cn2)NC(=O)[C@H](C)NC(=O)[C@H](CC(=O)O)NC(=O)[C@H](CC(C)C)NC(=O)[C@H]([C@@H](C)CC)NC(=O)[C@](C)(NC(=O)[C@H](C)NC(C)=O)CN(C)C(=O)OCC=CCOC(=O)N2CC[C@@](C(=O)N[C@@H](CCCNC(=N)N)C(=O)N[C@H](C(=O)N[C@@H](Cc3c[nH]c4ccccc34)C(N)=O)C(C)C)(C2)NC1=O [FP0604c, Ac-A-ME-I-L-D-A-H-I-MB-R-V-W-NH2] (Ac-A[dαMeDap(Me)]ILDAHI[X1]RVW-NH2; linker 2-9 via X2)
< 100 | CC[C@H](C)[C@@H]1NC(=O)[C@H](Cc2c[nH]cn2)NC(=O)[C@H](C)NC(=O)[C@H](CC(=O)O)NC(=O)[C@H](CC(C)C)NC(=O)[C@H]([C@@H](C)CC)NC(=O)[C@](C)(NC(=O)[C@H](C)NC(C)=O)CN(C)C(=O)OCC=CCOC(=O)N2CC[C@](C(=O)N[C@@H](CCCNC(=N)N)C(=O)N[C@H](C(=O)N[C@@H](Cc3c[nH]c4ccccc34)C(N)=O)C(C)C)(C2)NC1=O [FP0605c, Ac-A-ME-I-L-D-A-H-I-MC-R-V-W-NH2] (Ac-A[dαMeDap(Me)]ILDAHI[X3]RVW-NH2; linker 2-9 via X2)
< 100 | CC[C@H](C)[C@@H]1NC(=O)[C@H](Cc2c[nH]cn2)NC(=O)[C@H](C)NC(=O)[C@H](CC(=O)O)NC(=O)[C@H](CC(C)C)NC(=O)[C@H]([C@@H](C)CC)NC(=O)C2(NC(=O)[C@H](C)NC(C)=O)CN(C2)C(=O)OCC=CCOC(=O)N(C)CC[C@@](C)(C(=O)N[C@@H](CCCNC(=N)N)C(=O)N[C@H](C(=O)N[C@@H](Cc2c[nH]c3ccccc23)C(N)=O)C(C)C)NC1=O [FP0611c, Ac-A-MA-I-L-D-A-H-I-MF-R-V-W-NH2] (Ac-A[3Aminoazetidine3carboxyl]ILDAHI[αMeDab(Me)]RVW-NH2; linker 2-9 via X2)
100 to 500 | CC[C@H](C)[C@@H]1NC(=O)[C@H](Cc2c[nH]cn2)NC(=O)[C@H](C)NC(=O)[C@H](CC(=O)O)NC(=O)[C@H](CC(C)C)NC(=O)[C@H]([C@@H](C)CC)NC(=O)C2(NC(=O)[C@H](C)NC(C)=O)CN(C2)C(=O)OCC=CCOC(=O)N(C)CCC[C@](C)(C(=O)N[C@@H](CCCNC(=N)N)C(=O)N[C@H](C(=O)N[C@@H](Cc2c[nH]c3ccccc23)C(N)=O)C(C)C)NC1=O [FP0625c, Ac-A-MA-I-L-D-A-H-I-MI-R-V-W-NH2] (Ac-A[3Aminoazetidine3carboxyl]ILDAHI[dαMeOrn(Me)]RVW-NH2; linker 2-9 via X2)
500 to 5000 | CC[C@H](C)[C@@H]1NC(=O)[C@H](Cc2c[nH]cn2)NC(=O)[C@H](C)NC(=O)[C@H](CCS(C)(=O)=O)NC(=O)[C@H](CC(C)C)NC(=O)[C@H]([C@@H](C)CC)NC(=O)[C@](C)(NC(=O)[C@H](C)NC(C)=O)CCCCCCC=CCOC(=O)N2CC[C@@](C(=O)N[C@@H](CCCNC(=N)N)C(=O)N[C@H](C(=O)N[C@@H](Cc3c[nH]c4ccccc34)C(N)=O)C(C)C)(C2)NC1=O [FP0629c, Ac-A-R8-I-L-M2O-A-H-I-MB-R-V-W-NH2]
100 to 500 | CC[C@H](C)[C@@H]1NC(=O)[C@H](Cc2c[nH]cn2)NC(=O)[C@H](C)NC(=O)[C@H](CC(=O)O)NC(=O)[C@H](CC(C)C)NC(=O)[C@H]([C@@H](C)CC)NC(=O)[C@](C)(NC(=O)[C@H](C)NC(C)=O)CCCCCCC=CCOC(=O)N2CC[C@@](C(=O)N[C@@H](CCCNC(=N)N)C(=O)N[C@H](C(=O)N[C@H](Cc3c[nH]c4ccccc34)C(N)=O)C(C)C)(C2)NC1=O [FP0630c, Ac-A-R8-I-L-D-A-H-I-MB-R-V-dW-NH2]
500 to 5000 | CC[C@H](C)[C@@H]1NC(=O)[C@H](Cc2c[nH]cn2)NC(=O)[C@H](C)NC(=O)[C@H](CC(=O)O)NC(=O)[C@H](CC(C)C)NC(=O)[C@H]([C@@H](C)CC)NC(=O)[C@](C)(NC(=O)[C@H](C)NC(C)=O)CCCCCCC=CCOC(=O)N2CC[C@@](C(=O)N[C@@H](CCCNC(=N)N)C(=O)N[C@H](C(=O)N[C@@](C)(Cc3c[nH]c4ccccc34)C(N)=O)C(C)C)(C2)NC1=O [FP0631c, Ac-A-R8-I-L-D-A-H-I-MB-R-V-aMeW-NH2]
